Assay results taken from ChEMBL document CHEMBL4190387 (Bioorg Med Chem Lett, 2018).

Tests used:
in vitro = conditions: human, cryopreserved hepatocytes
physchem = conditions: buffer, pH 6.5

hepatocyte CLint at 1.5 h, 1 µM (in vitro) [µL/min/1e6 cells] | chromatographic logD (physchem) | SMILES
22 | 2.8 | O=C(O)c1ccc(-c2ccc(OCCCCO)c(-c3ccc(N4CCCC4)c(C(F)(F)F)c3)c2)cc1
72 | 3.5 | CC(C)(C)c1cc(-c2cc(-c3ccc(C(=O)O)cc3)ccc2OCCO)ccc1N1CCCC1 [TRIFAROTENE]
11 | 1.9 | CCN(CC)c1ccc(-c2cc(-c3ccc(C(=O)O)cc3)ccc2OCCCO)cc1

SMILES | hepatocyte CLint at 1.5 h, 1 µM (in vitro) [µL/min/1e6 cells] | chromatographic logD (physchem)
CCN(CC)c1ccc(-c2cc(-c3ccc(C(=O)O)cc3)ccc2OCCCCO)cc1C(C)(C)C | 33 | 4.3
